Results as given in patent publication US11985974B2, “Antimicrobial ferulic acid derivatives and uses thereof” (WISCONSIN ALUMNI RESEARCH FOUNDATION, priority 2014, dated 2024).
Where “and” joins values, the source holds several entries; their conditions need not be identical. Equal values may be shown once.

Assays:
[1] = test system: yeast deletion collection; test: Chemical genomic analysis of yeast deletion collection; format: cell-based, Saccharomyces cerevisiae
Protocol: Chemical genomic analysis of poacic acid was performed as described previously (Parsons et al. 2006, Fung et al. 2014). The tested yeast deletion collection had ˜4,000 strains using the genetic background described by Andrusiak (Andrusiak 2012). The optimal inhibitory concentration of poacic acid for chemical genomic profiling [70-80% growth vs. solvent control in yeast extract-peptone-galactose medium after 24 h of growth] was determined using an eight-point dose curve. A concentration of 88 μg/mL inhibited growth within this range; 200-μL cultures of the pooled deletion collection of S. cerevisiae were grown with 88 μg/mL poacic acid (n=3) or a DMSO control in triplicate for 48 h at 30° C. Genomic DNA was extracted using the Epicentre MasterPure Yeast DNA Purification Kit. Mutant-specific molecular barcodes were amplified with specially designed multiplex primers (Smith et al. 2009). The barcodes were sequenced using an Illumina MiSeq. Replicates of each condition, poacic acid (n=3) or DMSO (n=2), were sequenced. The barcode counts for each yeast deletion mutant in the presence of poacic acid were compared to the DMSO control conditions to determine sensitivity or resistance of individual strains (the chemical genetic interaction score) (Parsons et al. 2006). To determine a P value for each top sensitive and resistant mutant, we used the EdgeR package (Robinson et al. 2014, Robinson et al. 2010). A Bonferroni-corrected hypergeometric distribution test was used to search for significant enrichment of GO terms among the top 10 sensitive and resistant deletion mutants (Boyle et al. 2004). To understand the pathways that were most affected by poacic acid, we developed a protein complex/pathway score based on the summation of the z scores for each complex/pathway (Pathway z score). Correlation of the chemical genomic profile of poacic acid with the yeast genetic interaction network was performed as previously described (Costanzo et al. 2010).
For each complex, the chemical genetic interaction score of the genes in the complex with the compound was summed. To determine significance, the expectations for such a sum for random sets of genes of equal size were calculated. The random sets of equal size were expected to have means equal to the background mean and SDs equal to the background SD/sqrt(n). With this information, a z score (number of SDs from the expected mean) for each complex or pathway can be computed: Pathway z-score=(Σ−μ)/(σ×sqrt(n)), where Σ=sum of the chemical genetic interaction scores of genes in the complex, μ=mean of the chemical genetic interaction scores of the compounds with all genes studies, σ=SD of chemical genetic interaction scores of the compounds with all genes in the study, and n=size of the complex. Multivariate Morphological Analysis

[2] = test system: Saccharomyces cerevisiae; test: Growth inhibition of S. cerevisiae control strain by diferulates; format: cell-based; conditions: for bioactivity against S. cerevisiae: 1 mg/mL
Protocol: The diferulate compounds tested were synthesized as described by Lu et al. (2012) and resuspended in DMSO. Caspofungin, nikkomycin Z, and MMS were purchased from Sigma-Aldrich. Echinocandin B was a gift from O. Kondo (Chugai Pharmaceuticals, Tokyo, Japan). Micafungin was provided by Astellas Pharma. Diferulates were initially screened at a concentration of 1 mg/mL to determine bioactivity. Cells of Saccharomyces cerevisiae (MATα pdr1Δ::natMX pdr3Δ::KLURA3 snq2Δ::KI.LEU2 can1Δ::STE2pr-Sp_his5 lyp1Δ his3Δ1 leu2Δ0 ura3Δ0 met15Δ0), referred to as the control strain, were grown in 200-μL cultures at 30° C. in YPD with a drug or DMSO control. Plates were read on a TECAN M1000 over a 48-h growth period. The specific growth rate was calculated using GCAT analysis software (https://gcat3-pub.glbrc.org/) (Sato et al. 2014). When presented, IC50 values for growth rate inhibition were calculated from triplicate eight-point dose curves and SigmaPlot 12.0. When presented, error bars are means±SEs of at least three replicates.

[3] = test system: β-1,3-glucan synthesis; test: In vivo β-1,3-glucan synthesis (14C-glucose incorporation); format: cell-based, Saccharomyces cerevisiae; conditions: 250 μg/mL, 2 h, 25° C.
Protocol: Inhibition of in vivo β-1,3-glucan synthesis was measured as described previously with slight modification (n=3) (Abe et al. 2003). Yeast cells (his3Δ) were grown in YPD to early log phase at 25° C. The cultured cells were diluted to 1×10^7 cells per 1 mL with 1 mL of YPD medium containing one-tenth the glucose containing 23.125 kBq [14C] glucose (ARC0122; American Radiolabeled Chemicals) and test compounds [250 μg/mL for poacic acid, 4 μg/mL for echinocandin B, 30 mM for hydroxyurea (negative control), or 0.4% (vol/vol) DMSO as a solvent control]. The cells were radiolabeled by culturing at 25° C. for 2 h. The labeled cells were harvested and incubated with 1 N NaOH at 80° C. for 30 min. The insoluble pellets were resuspended in 10 mM Tris·HCl, pH 7.5, containing 5 mg/mL zymolyase 100T (Seikagaku) and incubated at 37° C. for 18 h. […] The flow-through fraction was mixed with scintillation mixture (Ultima Gold; PerkinElmer), and radioactivity was measured by a scintillation counter (LSC-6100; Aloka). The differences in the incorporation rates in samples were normalized by ΔOD600 measured before and after the labeling period.

COc1cc(/C=C/c2cc(/C=C/C(=O)O)cc(OC)c2O)ccc1O [poacic acid, (E)-4-Hydroxy-3-{2-[(E)-4-hydroxy-3-methoxystyryl]}-5-methoxycinnamic acid]
growth vs. solvent control ([1]; 88 μg/mL, yeast extract-peptone-galactose medium, 24 h): 70-80% | Z Score ([1]; ACK1 deletion mutant, sensitive): ACK1 −9.09 1.39E | Z Score ([1]; ALG6 deletion mutant, sensitive): ALG6 −8.30 1.82E | Z Score ([1]; BCK1 deletion mutant, sensitive): BCK1 −12.91 2.58E | Z Score ([1]; CSG2 deletion mutant, resistant): CSG2 5.89 1.57E | Z Score ([1]; CWH43 deletion mutant, sensitive): CWH43 −10.99 7.98E | Z Score ([1]; DFG5 deletion mutant, resistant): DFG5 5.51 1.34E | Z Score ([1]; DSF2 deletion mutant, resistant): DSF2 5.32 6.68E | Z Score ([1]; EMC4 deletion mutant, sensitive): EMC4 −7.92 1.90E | Z Score ([1]; ERG2 deletion mutant, sensitive): ERG2 −7.80 4.76E | Z Score ([1]; FYV8 deletion mutant, sensitive): FYV8 −9.11 1.11E | Z Score ([1]; LCL1 deletion mutant, resistant): LCL1 5.79 4.51E | Z Score ([1]; NBP2 deletion mutant, resistant): NBP2 5.43 1.57E | Z Score ([1]; NUP170 deletion mutant, resistant): NUP170 5.33 2.79E | Z Score ([1]; PIB2 deletion mutant, resistant): PIB2 4.96 2.79E | Pathway z score ([1]; PKC pathway (most sensitive pathway), 88 μg/mL): −7.85 | Z Score ([1]; RGD1 deletion mutant, sensitive): RGD1 −10.16 1.21E | Z Score ([1]; ROM2 deletion mutant, sensitive): ROM2 −9.47 8.88E | Z Score ([1]; RPL21B deletion mutant, resistant): RPL21B 4.81 1.11E | Z Score ([1]; RTS1 deletion mutant, resistant): RTS1 5.39 6.26E | Z Score ([1]; SNG1 deletion mutant, sensitive): SNG1 −7.91 8.96E | Z Score ([1]; SUR1 deletion mutant, resistant): SUR1 5.21 5.34E | bioactivity against S. cerevisiae [2]: greatest antifungal activity | bioactivity against S. cerevisiae ([2]; listed as Poacic acid): highest bioactivity | IC50 ([2]; Saccharomyces cerevisiae, read-out: IC50 (growth rate inhibition)): 111 µg/mL and 324 µM | 14C-glucose incorporation into the β-1,3-glucan layer [3]: significantly less 14C-glucose incorporation
